In patent US8093287B2, “Inhibitors of matrix metalloproteinases” (University of Notre Dame du Lac, priority 2005, dated 2012):
In brackets after ≈: the same amount, converted by molar mass. Where two headings read alike, the source gives them in different places.

Key:
MMP-14cat = biological target: T1, MMP-14cat (Homo sapiens, UniProt P50281); assay: Enzyme kinetics, MMP inhibition (Example 1); type: biochemical
T1 construct: MMP-2 (A), MMP-9 (B) and MMP-14cat (C)

MMP-9 [1] = biological target: T2, MMP-9 (Homo sapiens, UniProt P14780); assay: Enzyme kinetics, MMP inhibition (Example 1); type: biochemical
Target sequence in this assay (P14780 94-707): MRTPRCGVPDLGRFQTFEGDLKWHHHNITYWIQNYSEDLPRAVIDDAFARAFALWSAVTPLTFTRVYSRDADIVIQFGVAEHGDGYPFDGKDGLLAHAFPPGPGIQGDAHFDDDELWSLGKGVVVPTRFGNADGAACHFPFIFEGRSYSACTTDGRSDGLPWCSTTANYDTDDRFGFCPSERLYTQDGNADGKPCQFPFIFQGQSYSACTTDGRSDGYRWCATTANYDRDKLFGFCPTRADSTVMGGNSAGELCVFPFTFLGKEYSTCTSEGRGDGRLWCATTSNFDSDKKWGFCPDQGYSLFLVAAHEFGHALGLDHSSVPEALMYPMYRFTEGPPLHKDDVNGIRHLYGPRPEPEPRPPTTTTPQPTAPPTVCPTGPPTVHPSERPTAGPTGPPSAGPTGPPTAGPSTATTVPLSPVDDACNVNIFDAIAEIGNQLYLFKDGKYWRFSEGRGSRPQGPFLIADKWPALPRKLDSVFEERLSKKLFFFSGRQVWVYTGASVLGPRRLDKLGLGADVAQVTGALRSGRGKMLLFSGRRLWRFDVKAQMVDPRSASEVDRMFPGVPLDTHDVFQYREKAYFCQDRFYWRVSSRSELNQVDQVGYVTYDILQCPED

MMP-7 [2] = biological target: T3, MMP-7 (Homo sapiens, UniProt P09237); assay: Enzyme kinetics, MMP inhibition (Example 1); type: biochemical
T3 sequence (P09237 95-267): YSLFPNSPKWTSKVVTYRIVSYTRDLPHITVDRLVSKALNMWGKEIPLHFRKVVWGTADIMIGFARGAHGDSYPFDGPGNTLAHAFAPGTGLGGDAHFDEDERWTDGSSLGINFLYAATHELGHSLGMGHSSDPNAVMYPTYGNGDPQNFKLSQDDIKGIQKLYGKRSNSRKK

MMP-3 [3] = biological target: T4, MMP-3 (Homo sapiens, UniProt P08254); assay: Enzyme kinetics, MMP inhibition (Example 1); type: biochemical
Target sequence in this assay (P08254 100-477): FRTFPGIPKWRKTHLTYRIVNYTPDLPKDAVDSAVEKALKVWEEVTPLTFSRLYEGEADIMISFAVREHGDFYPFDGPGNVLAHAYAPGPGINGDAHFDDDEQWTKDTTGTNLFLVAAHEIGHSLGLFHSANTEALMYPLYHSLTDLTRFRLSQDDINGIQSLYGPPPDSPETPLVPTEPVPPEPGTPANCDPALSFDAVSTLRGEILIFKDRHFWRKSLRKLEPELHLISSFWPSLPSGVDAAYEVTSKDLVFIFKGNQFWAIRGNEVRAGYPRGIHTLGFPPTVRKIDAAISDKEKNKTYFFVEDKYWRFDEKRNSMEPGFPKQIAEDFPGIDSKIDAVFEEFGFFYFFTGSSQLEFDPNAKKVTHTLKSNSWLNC

MMP-1 [4] = biological target: T5, MMP-1 (Homo sapiens, UniProt P03956); assay: Enzyme kinetics, MMP inhibition (Example 1); type: biochemical
T5 sequence (P03956 100-469): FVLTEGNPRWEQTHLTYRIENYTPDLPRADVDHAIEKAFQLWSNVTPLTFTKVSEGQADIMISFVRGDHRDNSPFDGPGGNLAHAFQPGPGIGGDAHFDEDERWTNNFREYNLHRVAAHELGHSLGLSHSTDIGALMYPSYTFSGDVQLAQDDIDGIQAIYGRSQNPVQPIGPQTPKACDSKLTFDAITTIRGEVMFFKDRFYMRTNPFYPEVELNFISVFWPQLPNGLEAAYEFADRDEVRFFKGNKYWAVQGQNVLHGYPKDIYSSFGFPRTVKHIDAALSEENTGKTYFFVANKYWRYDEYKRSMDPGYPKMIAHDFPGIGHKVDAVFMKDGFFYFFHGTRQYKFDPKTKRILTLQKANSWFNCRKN

MMP-2 = biological target: T6, MMP-2 (Homo sapiens, UniProt P08253); assay: Enzyme kinetics, MMP inhibition (Example 1); type: biochemical; conditions: for Ki: for 1.3 with slow-binding component
T6 sequence (P08253 110-660): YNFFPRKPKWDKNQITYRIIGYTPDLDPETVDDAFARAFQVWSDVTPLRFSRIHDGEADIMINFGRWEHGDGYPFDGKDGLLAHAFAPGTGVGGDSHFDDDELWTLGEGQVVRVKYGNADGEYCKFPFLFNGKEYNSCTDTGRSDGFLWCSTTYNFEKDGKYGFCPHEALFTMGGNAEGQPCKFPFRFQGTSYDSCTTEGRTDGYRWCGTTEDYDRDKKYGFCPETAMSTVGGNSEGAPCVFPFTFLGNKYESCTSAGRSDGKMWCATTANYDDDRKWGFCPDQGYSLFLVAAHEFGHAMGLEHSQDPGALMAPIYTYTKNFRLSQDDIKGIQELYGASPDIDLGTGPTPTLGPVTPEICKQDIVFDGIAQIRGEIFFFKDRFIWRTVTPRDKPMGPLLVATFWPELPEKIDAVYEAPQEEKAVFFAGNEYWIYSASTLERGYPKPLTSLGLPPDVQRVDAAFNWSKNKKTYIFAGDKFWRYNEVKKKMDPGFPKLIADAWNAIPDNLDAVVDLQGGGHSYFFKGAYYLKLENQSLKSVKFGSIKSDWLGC

physchem = conditions: 37 °C, pH 7.5, aqueous with cosolvent or surfactant or cyclodextrin, kinetic from dmso stock
MMP-1 [5] = biological target: T5, MMP-1; assay: biochemical
HT1080 cells [6] = assay: Migration assay, scratch wound; type: cell-based, human
Protocol: (§1) FIG. 7 illustrates inhibition of HT1080 cell motility and invasion by inhibitor 2.3. A-B: Confluent cultures of HT1080 cells in 6-well plates were treated with mitomycin C (25 μg/ml) in serum-free DMEM media for 30 minutes. Scratch wounds were made on the monolayers and the wounded cultures were then incubated with serum-free DMEM supplemented without or with various amounts of inhibitor 2.3 (0-20 μM) for up to 20 hours. At each time period, the cultures were photographed (A) and the width of the scratch wound was measured as described under the Experimental Procedures section of Example 2. (C): HT1080 cells were seeded in 8-μm pore Transwell filters coated with Matrigel (50 μg/filter) in the presence or absence of inhibitor 2.3 (0.1-10 μM). The number of cells that invaded to the lower side of the filter was counted in three representative fields. Each value represents the mean±SE of four independent determinations. *P<0.05, and *P<0.001 when tested against the control using Tukey-Kramer Multiple Comparisons Test (P=0.004 by ANOVA).
Migration and Invasion Assays—For migration assays, HT1080 cells were cultured in 6-well plates in complete media until they reached confluence. […] The extent of wound closure in the presence or absence of inhibitor was quantified by measuring the width of the wound with a ruler using an amplified PowerPoint figure.

MMP-7 [7] = biological target: T3, MMP-7; conditions: MMP-7, rapid competitive inhibition
MMP-3 [8] = biological target: T4, MMP-3; conditions: MMP-3, rapid competitive inhibition
Target sequence in this assay (P08254 100-272 limits assumed): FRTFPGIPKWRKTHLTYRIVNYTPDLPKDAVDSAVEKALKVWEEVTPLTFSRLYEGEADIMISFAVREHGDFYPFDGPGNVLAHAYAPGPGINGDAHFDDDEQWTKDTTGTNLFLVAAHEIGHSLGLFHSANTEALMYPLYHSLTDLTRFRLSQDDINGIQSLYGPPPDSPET

MMP-9 [9] = biological target: T2, MMP-9; conditions: read-out: Ki of the slow-binding component
Target sequence in this assay (P14780 107-707 limits assumed): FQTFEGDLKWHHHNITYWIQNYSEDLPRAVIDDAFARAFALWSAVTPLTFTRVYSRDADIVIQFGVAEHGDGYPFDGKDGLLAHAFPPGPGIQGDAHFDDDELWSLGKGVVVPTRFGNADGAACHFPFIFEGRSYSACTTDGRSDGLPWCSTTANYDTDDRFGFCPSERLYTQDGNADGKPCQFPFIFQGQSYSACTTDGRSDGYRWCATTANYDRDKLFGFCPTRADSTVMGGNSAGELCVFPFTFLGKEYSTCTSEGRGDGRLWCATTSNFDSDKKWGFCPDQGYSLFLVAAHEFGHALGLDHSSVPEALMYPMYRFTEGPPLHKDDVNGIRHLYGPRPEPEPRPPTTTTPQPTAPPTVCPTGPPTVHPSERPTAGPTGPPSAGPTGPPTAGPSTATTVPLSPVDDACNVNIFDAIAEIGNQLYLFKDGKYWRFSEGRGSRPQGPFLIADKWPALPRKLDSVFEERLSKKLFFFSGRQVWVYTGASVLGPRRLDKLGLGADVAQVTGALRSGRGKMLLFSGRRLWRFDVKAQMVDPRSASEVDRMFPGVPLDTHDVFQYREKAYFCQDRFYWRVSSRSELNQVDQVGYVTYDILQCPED

MMP-14 [10] = biological target: T7, MMP-14 (Homo sapiens, UniProt P50281); conditions: MMP-14, slow-binding component, koff/kon
HT1080 cells [11] = assay: Tumor cell invasion, Matrigel-coated Transwell; type: cell-based; conditions: Homo sapiens, HT-1080; 100 nM; Matrigel-coated filters, 18 h
Protocol: as §1
Tumor cell invasion was carried out in 8-μm pore Transwell inserts (Becton Dickinson, Boston, Mass.) coated with 50 μg Matrigel per filter. […] The cells that migrated to the lower side of the Matrigel-coated filter were fixed and stained with Diff-Quik® (Dade Behring Inc., Newark, Del.), and counted under a microscope in three different fields. […]

HT1080 cells [12] = assay: Chemosensitivity assay (WST-1); type: cell-based, human; conditions: up to 10 μM, 18 hours
Protocol: Chemosensitivity Assay—Cell viability after exposure of the cells to the inhibitors was assessed by 2-(4-iodophenyl)-3-(4-nitrophenyl)-5-(2,4-disulfophenyl)-2H-tetrazolium, monosodium salt (WST-1, Roche Diagnostics Gmbh, Mannheim, Germany) staining Briefly, HT1080 cells (2×10^4 cells/well) were seeded in 96-well culture plates in complete medium. After overnight culture, the medium was replaced with serum and phenol-free media containing 0.1% BSA and supplemented with or without inhibitor 2.3 (0-10 μM final concentrations). Control medium was supplemented with 1% DMSO. After 18 hours incubation, WST-1 (10 μL/well) was added and the difference in absorbance at 450 and 655 (reference filter) nm was measured using a Bio-Rad Benchmark microplate reader. Data were collected using the Microplate Manager software. The absorbance of blank wells containing control media but no cells (typically <5%) was subtracted. Each treatment was assayed in quadruplicate.

MMP-3 [13] = biological target: T4, MMP-3; assay: biochemical
Target sequence in this assay (P08254 100-272 limits assumed): as the sequence (P08254 100-272 limits assumed) above

MMP-14 [14] = biological target: T7, MMP-14; assay: biochemical
MMP-7 [15] = biological target: T3, MMP-7; assay: biochemical
MMP-9 [16] = biological target: T2, MMP-9; assay: biochemical
Target sequence in this assay (P14780 107-707 limits assumed): as the sequence (P14780 107-707 limits assumed) above

[17] = Assessment of inhibitor solubility; conditions: 37 °C, pH 7.5, aqueous with cosolvent or surfactant or cyclodextrin, kinetic from dmso stock

2-(4-{4-[(2-Thiiranylpropyl)sulfonyl]phenoxy}phenyl)acetic acid [Compound 1.4]
Ki (MMP-14cat): 53 µM | Ki (MMP-9 [1]): 4100 nM | Ki (MMP-7 [2]): 250 µM | Ki (MMP-3 [3]): 540 µM | Ki (MMP-1 [4]): 4.5 µM | Ki (MMP-2): 460 nM

CC(=O)Nc1ccc(Oc2ccc(S(=O)(=O)CC3CS3)cc2)cc1 (stereo not drawn) [Compound 2.7, [4-(4-Acetamidophenoxy)phenylsulfonyl]methylthiirane]
solubility (physchem): 540 µM (≈ 196 µg/mL)

CS(=O)(=O)Nc1ccc(Oc2ccc(S(=O)(=O)CC3CS3)cc2)cc1 (stereo not drawn) [Compound 2.3, {4-[4-(Methanesulfonamido)phenoxy]phenylsulfonyl}methylthiirane]
Ki (MMP-1 [5]): > 25 µM | migration in scratch wound assay (HT1080 cells [6]; 200 nM): slower migration | inhibition at 2 µM (HT1080 cells [6]; Homo sapiens, HT-1080): 80% | Ki (MMP-7 [7]): 295 ± 10 µM | Ki (MMP-3 [8]): 3.6 ± 0.2 µM | Ki (MMP-9 [9]): 180 ± 50 nM | solubility (physchem): 340 µM (≈ 136 µg/mL) | Ki (MMP-14 [10]): 900 ± 100 nM | inhibition at 0.1 µM (HT1080 cells [11]): > 25% | cell toxicity (WST-1) (HT1080 cells [12]): no evidence of cell toxicity

O=[N+]([O-])c1ccc(Oc2ccc(S(=O)(=O)CC3CO3)cc2)cc1 (stereo not drawn) [Compound 2.4, [4-(4-Nitrophenoxy)phenylsulfonyl]methyloxirane]
Ki (MMP-1 [5]): > 298 µM | Ki (MMP-3 [13]): > 190 µM | Ki (MMP-14 [14]): 76 ± 13 µM | Ki (MMP-7 [15]): 130 ± 15 µM | Ki (MMP-9 [16]): 25 ± 5 µM

O=S(=O)(CC1CS1)c1ccc(Oc2ccccc2)cc1 (stereo not drawn) [Compound 2.1, reference compound]
solubility (physchem): 80 µM (≈ 24.5 µg/mL)

CC(=O)Nc1ccc(Oc2ccc(S(=O)(=O)CC3CO3)cc2)cc1 (stereo not drawn) [Compound 2.6, [4-(4-Acetamidophenoxy)phenylsulfonyl]methyloxirane]
Ki (MMP-1 [5]): > 154 µM | Ki (MMP-3 [13]): > 188 µM | Ki (MMP-14 [14]): > 230 µM | Ki (MMP-7 [15]): > 184 µM | Ki (MMP-9 [16]): 34 ± 3 µM

Methyl 2-(4-{4-[(2-Thiiranylpropyl)sulfonyl]phenoxy}phenyl)-acetate [Compound 1.3]
Ki (MMP-14cat): 0.59 ± 0.07 µM | Ki (MMP-9 [1]): 40 ± 2 nM | Ki (MMP-7 [2]): 13 µM | Ki (MMP-3 [3]): 8.7 µM | Ki (MMP-1 [4]): 11 µM | koff, slow-binding component of inhibition (MMP-2): (6.2 ± 0.7) × 10^−4 s^−1 | kon, slow-binding component of inhibition (MMP-2): (1.2 ± 0.3) 10^4 M^−1s^−1 | Ki (MMP-2): 50 ± 14 nM

O=[N+]([O-])c1ccc(Oc2ccc(S(=O)(=O)CC3CS3)cc2)cc1 (stereo not drawn) [Compound 2.5, [4-(4-Nitrophenoxy)phenylsulfonyl]methylthiirane]
Ki (MMP-1 [5]): 67 ± 18 µM | Ki (MMP-3 [13]): 131 ± 9 µM | Ki (MMP-14 [14]): 4.9 ± 0.3 µM | Ki (MMP-7 [15]): 153 ± 16 µM | Ki (MMP-9 [16]): 1 ± 0.1 µM | solubility [17]: 60 µM (≈ 21.1 µg/mL)
